Laboratory results from patent US12139488B2, “Pyrido[3,2-d]pyrimidine compounds uses thereof for treating a proliferative disease” (Universite de Montreal, priority 2021, dated 2024).
Like-named read-outs stand apart in the source and are kept apart here.

What was measured:
Assay type in all cases: cell-based, human
[1] = test system: pERK in HCT-116 cells (KRAS G13D); assay: Phospho-ERK inhibition (AlphaLISA SureFire Ultra p-ERK 1/2), HCT116; details: for HCT116 pERK % Ymin: value in parentheses
Outline: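 Overnight-seeded cells received compound for an hour before lysis, and phospho-ERK1/2 was then measured with an AlphaLISA SureFire Ultra kit. Percent inhibition relative to vehicle, after trametinib background subtraction, gave IC50 by curve fitting.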

[2] = test system: pERK in IPC298 cells (NRAS-Q61L); assay: Phospho-ERK inhibition (AlphaLISA), IPC298; details: for IPC298 pERK % Ymin: IPC298, value in parentheses
Method: (§1) All cancer cell lines (A375, A101D, A2058, RKO, HT29 SK-MEL 30, IPC298, HepG2, HCT-116, Lovo, SWV620, SW480, NCI-H358, NCI-H2122, Calu-6, NCIH2087, NCIH1755, NCIH1666 and Mewo) were obtained from ATCC and cultured in RPMI-1640 medium (Gibco) supplemented with 5% heat inactivated fetal bovine serum (FBS, Wisent) at 37° C. under 5% CO2. Cells were maintained in T175 flasks (Greiner). They were passaged by removing the culture medium, washing once in 10 mL of room temperature Phosphate Buffered Saline (PBS; Wisent) and incubating at 37° C. with 2 mL of 0.05% Trypsin (Thermo-Fisher). Trypsin was then inactivated by adding complete growth medium and the cells were then replated in a T175 culture dish at the appropriate dilution. All cell lines were routinely tested for mycoplasma contamination. Tissue type and mutational status of each cell line can be found in Table B.
(§2) AlphaLISA® SureFire® Ultra™ p-ERK 1/2 (Thr202/Tyr204) analysis was conducted on cells plated in 100 μL of complete RPMI-1640 growth medium in 96-well flat-bottomed transparent dishes (Costar) at a density indicated in Table C. Cells were maintained overnight at 37° C. under 5% CO2 before treatment with compounds' dilution series for one hour. The cell density in cells/cm^2 corresponds to cell number divided by the area of one well of a 96-well plate ([…]).
(§3) In a dilution series 100 μL/well of test substance dilution prepared in complete RPMI-1640 growth media was added to the cells. The dilution series is selected so that ten concentrations cover a range from 10 μM to 0.33 nM. If necessary the initial concentration of 10 μM is increased to 100 μM or lowered to 1 μM (as in the case of A375 and H1666 cells, which are generally more sensitive to the compounds) and further dilution is carried out accordingly. The final concentration of DMSO in the assay is set at 0.5%.
(§4) After treatment, media was removed and cells were lysed in 50 μL of 1× AlphaScreen Ultra Lysis Buffer (Perkin Elmer). The AlphaLISA® SureFire® Ultra™ p-ERK 1/2 (Thr202/Tyr2O4) (PerkinElmer) reactions were performed with 5 μL of cell lysate according to the manufacturer's specifications in 384-well proxyplates (Perkin Elmer) followed by overnight incubation of the reactions at room temperature in a humidified chamber. After completion of the reactions, the signals were recorded on an EnVision plate reader (Perkin Elmer) using built in AlphaLISA® settings.
(§5) The effect of each compound dilution on the pERK signal was expressed in % inhibition and calculated as follows. An internal 100% inhibition control ([…] trametinib, cat #HY-10999; MedChem Express; CAS #871700-17-3) was included in each plate and used as a measure of pERK background. First, the value obtained for trametinib was subtracted from each data point. The average of DMSO (vehicle) controls (set as 0% inhibition) was established and used to calculate % inhibition: % inhibition=100*(1-((pERK signalcompound)/(pERK signalDMSO)))
(§6) The ability of each compound to inhibit pERK signal was expressed as an IC50 value obtained by plotting the inhibition values for each data point of a dilution series and fitting the obtained curves using a log(agonist) versus response-variable slope (four parameters) function using GraphPadPrism (V7.0) or Dotmatics Screening Ultra platform.
(§7) When present, paradoxical pERK induction is inferred from the negative % inhibition values observed in the pERK IC50 curves of a compound.

HT29 cells (BRAF V600E) = assay: Proliferation inhibition (CellTiter-Glo), HT29; details: HT-29, 3 days, read-out: HT-29 Prolif. EC50
Method: as §1
(§8) CellTiter-Glo® viability analysis was conducted on cells plated in 100 μL of complete RPMI-1640 growth medium in 96-well flat-bottomed white opaque plates (Greiner or Croning) at a density indicated in Table E (for each CCL, number of cells plated per well of a 96-well plate to perform the CellTiter-Glo® cell viability assay). The cell density in cells/cm^2 would correspond to cell number divided by the area of one well of a 96-well plate (0.32 cm^2). […]
(§9) After 3 days of incubation, the growth media were removed by aspiration and 60 μL of diluted CellTiter-Glo® reagent (10 μL CellTiter-Glo® reagent+50 μL of PBS) was added to each well. […] Luminescence signals were then acquired on a Synergy Neo2 plate reader (Biotek).
(§10) The effect of each compound dilution on the proliferation of cancer cell lines was expressed in % inhibition and calculated as follows. […]
as §6, with “proliferation” for “pERK signal”, “a EC50” for “an IC50”, “effect” for “inhibition”

[3] = test system: pERK in Mewo cells (NF1 LOF); assay: Phospho-ERK inhibition (AlphaLISA), Mewo; details: for Mewo pERK % Ymin: value in parentheses
Method: as §1, §2, §3, §4, §5, §6, §7

[4] = test system: NCIH1755 cells (BRAF G469A); assay: Proliferation inhibition (CellTiter-Glo), NCIH1755; details: NCIH1755, 3 days, read-out: NCIH1755 Prolif. EC50
Method: as §1, §8, §9, §10
as §6, with “proliferation” for “pERK signal”, “a EC50” for “an IC50”, “effect” for “inhibition”

[5] = test system: NCI-H2122 cells (KRAS-G12C); assay: Proliferation inhibition (CellTiter-Glo), NCI-H2122; details: NCI-H2122, 3 days, read-out: NCI-H2122 Prolif. EC50
Method: as §1, §8, §9, §10
as §6, with “proliferation” for “pERK signal”, “a EC50” for “an IC50”, “effect” for “inhibition”

Row | SMILES | HCT116 pERK % Ymin ([1]; HCT116, Table D) [%] | IC50 ([1]; Homo sapiens, HCT-116, HCT116, Table D) [nM] | IC50 ([2]; Homo sapiens, IPC-298) [nM] | IPC298 pERK % Ymin [2] [%] | EC50 (HT29 cells (BRAF V600E); Homo sapiens, 72 h) [nM] | IC50 ([3]; Homo sapiens, MeWo) [nM] | Mewo pERK % Ymin ([3]; Mewo) [%] | EC50 ([4]; Homo sapiens, NCI-H1755, 72 h) [nM] | EC50 ([5]; Homo sapiens, 72 h) [nM] | IC50 ([1]; HCT116, Table D) [nM] | HCT116 pERK Ymin % ([1]; HCT116 cells, Ymin in brackets) [%] | IC50 ([1]; HCT116 cells, class symbol before the bracket) [nM] | YMIN of pERK IC50 dose response curve (paradoxical induction of pERK signaling) ([1]; RAS-mutant HCT116 cells, FIG. 1) [%] | IC50 ([2]; IPC298) [nM] | EC50 (HT29 cells (BRAF V600E)) [nM] | IC50 ([3]; Mewo) [nM] | EC50 [4] [nM] | EC50 [5] [nM] | IC50 ([1]; HCT116 cells, class symbol) [nM]
1 | Cc1ccc2c(Nc3cccc(Cl)c3F)nccc2c1NC(=O)c1csc2c(N)ncnc12 [Belvarafenib, reference compound] | −46 | 30 to 300 | 30 to 300 | −63 | < 30 | 30 to 300 | −116 | > 3000 | 300 to 3000 |  |  |  |  |  |  |  |  |  | 
2 | Nc1cccc2c1ncn2-c1ccc2ncnc(Nc3c(F)ccc(NS(=O)(=O)c4cccc(Cl)c4Cl)c3F)c2n1 [Example 99] | −0.3 |  |  | −2 |  |  | −7 |  |  | 30 to 300 | −5.4 | < 500 | > −20 | 30 to 300 | < 30 | 30 to 300 | < 30 | 300 to 3000 | 
3 | CC1(O)CCN(c2cccc3c2ncn3-c2ccc3ncnc(Nc4c(F)ccc(NS(=O)(=O)c5cccc(Cl)c5Cl)c4F)c3n2)CC1 [Example 524] | −3 |  |  | 13 |  |  | −5 |  |  | 30 to 300 |  |  |  | 30 to 300 | < 30 | 30 to 300 | 300 to 3000 | 300 to 3000 | < 500
